{"source": "paper PMC9181795", "about": "“Ibuprofen Favors Binding of Amyloid-β Peptide to Its Depot, Serum Albumin” (International Journal of Molecular Sciences, 2022)", "key": {"mouse models of AD": {"tested_on": "mouse models of AD", "set-up": "method as in 6 sources, ref [28]–[35] = [28]; PMID 15817521; doi:10.1093/brain/awh452; 28. Heneka M.T. Sastre M. Dumitrescu-Ozimek L. Hanke A. Dewachter I. Kuiperi C. O’Banion K. Klockgether T. Van Leuven F. Landreth G.E. Acute treatment with the PPARgamma agonist pioglitazone and ibupr || [29]; PMID 18374906; doi:10.1016/j.brainres.2008.01.095; 29. McKee A.C. Carreras I. Hossain L. Ryu H. Klein W.L. Oddo S. LaFerla F.M. Jenkins B.G. Kowall N.W. Dedeoglu A. Ibuprofen reduces Abeta, hyperphosphorylated tau and memory deficits in Alzheimer mice || [30]; PMID 19679126; doi:10.1016/j.expneurol.2009.07.032; 30. Choi J.K. Jenkins B.G. Carreras I. Kaymakcalan S. Cormier K. Kowall N.W. Dedeoglu A. Anti-inflammatory treatment in AD mice protects against neuronal pathology Exp. Neurol. 2010 223 377 384 10.101 || [31]; PMID 27190010; doi:10.1093/brain/aww117; 31. Woodling N.S. Colas D. Wang Q. Minhas P. Panchal M. Liang X. Mhatre S.D. Brown H. Ko N. Zagol-Ikapitte I. Cyclooxygenase inhibition targets neurons to prevent early behavioural decline in Alzheime || [32]; PMID 12930788; doi:10.1523/JNEUROSCI.23-20-07504.2003; 32. Yan Q. Zhang J. Liu H. Babu-Khan S. Vassar R. Biere A.L. Citron M. Landreth G. Anti-inflammatory drug therapy alters beta-amyloid processing and deposition in an animal model of Alzheimer’s diseas ||| ref [28],[29],[30],[32],[33],[34],[35] = [28]; PMID 15817521; doi:10.1093/brain/awh452; 28. Heneka M.T. Sastre M. Dumitrescu-Ozimek L. Hanke A. Dewachter I. Kuiperi C. O’Banion K. Klockgether T. Van Leuven F. Landreth G.E. Acute treatment with the PPARgamma agonist pioglitazone and ibupr || [29]; PMID 18374906; doi:10.1016/j.brainres.2008.01.095; 29. McKee A.C. Carreras I. Hossain L. Ryu H. Klein W.L. Oddo S. LaFerla F.M. Jenkins B.G. Kowall N.W. Dedeoglu A. Ibuprofen reduces Abeta, hyperphosphorylated tau and memory deficits in Alzheimer mice || [30]; PMID 19679126; doi:10.1016/j.expneurol.2009.07.032; 30. Choi J.K. Jenkins B.G. Carreras I. Kaymakcalan S. Cormier K. Kowall N.W. Dedeoglu A. Anti-inflammatory treatment in AD mice protects against neuronal pathology Exp. Neurol. 2010 223 377 384 10.101 || [32]; PMID 12930788; doi:10.1523/JNEUROSCI.23-20-07504.2003; 32. Yan Q. Zhang J. Liu H. Babu-Khan S. Vassar R. Biere A.L. Citron M. Landreth G. Anti-inflammatory drug therapy alters beta-amyloid processing and deposition in an animal model of Alzheimer’s diseas || [33]; PMID 10908610; doi:10.1523/JNEUROSCI.20-15-05709.2000; 33. Lim G.P. Yang F. Chu T. Chen P. Beech W. Teter B. Tran T. Ubeda O. Ashe K.H. Frautschy S.A. Ibuprofen suppresses plaque pathology and inflammation in a mouse model for Alzheimer’s disease J. Neuro ||| ref [28] = [28]; PMID 15817521; doi:10.1093/brain/awh452; 28. Heneka M.T. Sastre M. Dumitrescu-Ozimek L. Hanke A. Dewachter I. Kuiperi C. O’Banion K. Klockgether T. Van Leuven F. Landreth G.E. Acute treatment with the PPARgamma agonist pioglitazone and ibupr ||| ref [32] = [32]; PMID 12930788; doi:10.1523/JNEUROSCI.23-20-07504.2003; 32. Yan Q. Zhang J. Liu H. Babu-Khan S. Vassar R. Biere A.L. Citron M. Landreth G. Anti-inflammatory drug therapy alters beta-amyloid processing and deposition in an animal model of Alzheimer’s diseas ||| ref [33],[34] = [33]; PMID 10908610; doi:10.1523/JNEUROSCI.20-15-05709.2000; 33. Lim G.P. Yang F. Chu T. Chen P. Beech W. Teter B. Tran T. Ubeda O. Ashe K.H. Frautschy S.A. Ibuprofen suppresses plaque pathology and inflammation in a mouse model for Alzheimer’s disease J. Neuro || [34]; PMID 15688088; doi:10.1038/sj.npp.1300668; 34. Morihara T. Teter B. Yang F. Lim G.P. Boudinot S. Boudinot F.D. Frautschy S.A. Cole G.M. Ibuprofen suppresses interleukin-1beta induction of pro-amyloidogenic alpha1-antichymotrypsin to ameliorate ||| ...", "conditions": "cited from earlier work"}, "Aβ40(A21G)": {"tested_on": "Aβ40(A21G)", "assay": "ThT fluorescence assay, Aβ40(A21G) fibrillation", "assay_type": "biochemical, human", "conditions": "20 µM IBU, 20 µM Aβ40(A21G), no HSA, 30 °C, pH 7.4", "procedure": "(§1) ThT fluorescence emission measurements were carried out using a BioTek Synergy H1 multimode microplate reader and Greiner Bio-One non-binding microplates #781906 mainly as described in ref. [11]. […] ThT fluorescence was excited at 440 nm and emission at 485 nm was measured for 190 h every 30 min, with orbital shaking prior to each measurement. […] The lag time, tlag, is calculated as (t0 − 2/kapp)."}, "HSA": {"tested_on": "HSA", "conditions": "cited from earlier work"}, "Aβ40": {"tested_on": "Aβ40", "assay": "ThT fluorescence assay, Aβ40 fibrillation", "assay_type": "biochemical, human", "procedure": "as §1"}, "[1]": {"set-up": "method as in PMID 4202799", "conditions": "at therapeutic levels; ref [24]; cited from earlier work"}, "[2]": {"conditions": "20 µM IBU, no HSA, 20 µM Aβ40, 30 °C, Boltzmann sigmoid function, n = 3–5"}}, "note": "Entries after “also recorded” stand apart in the source; their conditions may differ. Read-outs that look alike come from different tables or passages of the source.", "data": [{"smiles": "CC(C)Cc1ccc(C(C)C(=O)O)cc1", "note": "(centres unmarked) [IBU, 2-[4-(2-methylpropyl)phenyl]propanoic acid]", "values": [{"measurement": "neuroprotective effects of IBU intake", "setting": "mouse models of AD; mouse models of AD, ref [28]–[35]", "result": "suppression of the inflammatory processes, reduction in the Aβ sprand tau protein depositions, and lowering of the cognitive and memory deficits"}, {"measurement": "mechanism ascribed to reduced Aβ deposition", "setting": "mouse models of AD; ref [28]", "result": "downregulation of β-secretase 1 and COX-2"}, {"measurement": "mechanism ascribed to reduced Aβ deposition", "setting": "mouse models of AD; ref [32]", "result": "reduction in Aβ42 production"}, {"measurement": "mechanism ascribed to reduced Aβ deposition", "setting": "mouse models of AD; ref [33],[34]", "result": "inhibition of interleukin-1β and its downstream target α1-antichymotrypsin"}, {"measurement": "mechanism ascribed to reduced Aβ deposition", "setting": "mouse models of AD; ref [35]", "result": "attenuation of NADPH oxidase activation and reactive oxygen species production"}, {"measurement": "brain deposition of Aβ upon treatment with IBU", "setting": "mouse models of AD; several mouse AD models, ref [28],[29],[30],[32],[33],[34],[35]", "result": "reduction in brain deposition of Aβ"}, {"measurement": "suppression of fibrillation by IBU alone", "setting": "Aβ40(A21G)", "result": "does not induce statistically significant suppression of the fibrillation process"}, {"measurement": "effect of IBU on HSA affinity to heme", "setting": "HSA; ref [74],[75]", "result": "allosterically affect HSA affinity to heme"}, {"measurement": "effect of IBU binding on HSA affinity to lorazepam", "setting": "HSA; ref [76]", "result": "enhanced its affinity to lorazepam"}, {"measurement": "effect of IBU on suppression of Aβ40 fibrillation by HSA", "setting": "Aβ40; 20 µM IBU + 2 µM HSA, 20 µM Aβ40, 30 °C, pH 7.4", "result": "strengthens the suppression of Aβ40 fibrillation by 2 µM HSA; also recorded: favors the suppression of fibrillation of 20 µM Aβ40 by 2 µM HSA"}, {"measurement": "decline in tlag in response to IBU", "setting": "Aβ40; 20 µM IBU in presence of 2 µM HSA, 20 µM Aβ40, 30 °C, n = 3–5", "result": 21, "unit": "%"}, {"measurement": "minor opposite effects of IBU on lag phase and rate constant", "setting": "Aβ40; 20 µM IBU, 2 µM HSA, 20 µM Aβ40", "result": "shortening of the lag phase and decrease in the apparent rate constant of the process"}, {"measurement": "suppression of fibrillation by IBU alone", "setting": "Aβ40; 20 µM IBU, 20 µM Aβ40, no HSA, 30 °C, pH 7.4", "result": "does not induce statistically significant suppression of the fibrillation process"}, {"measurement": "effect on apparent rate constant kapp", "setting": "Aβ40; [2]", "result": "did not affect the kapp value"}, {"measurement": "factor of shortening of lag phase (tlag)", "setting": "Aβ40; [2]", "result": 2}, {"measurement": "decrease in apparent rate constant kapp", "setting": "Aβ40; combination of 2 µM HSA and 20 µM IBU, 20 µM Aβ40, 30 °C, n = 3–5", "result": 17, "unit": "%"}, {"measurement": "bound to blood plasma proteins", "setting": "[1]", "result": 99, "unit": "%"}]}]}
